Structures are written as SMILES. pIC50, pKd: −log10 of the molar value. Like-named read-outs stand apart in the source and are kept apart here. Where only a bound is given, the exact number is not on record here.

For test [1], the target named is T1, Avi-KRAS G12D/Q25A (1-169) GppNHp/3×FLAG-PI3KCA (157-299) (Homo sapiens, UniProt P01116, G12D/Q25A).
T1 construct: Avi-KRAS G12D/Q25A (1-169) GppNHp
Kind of test: HTRF PI3KCA-KRAS G12D/Q25A-GppNHp disruption assay. It is filed as biochemical. The note with it: 1 h incubation. In short, it runs like this: (§1)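 HTRF read-out (320 nm excitation, 615 nm emission) after two 1 h room-temperature incubations, first with protein mix, then detection reagents. Ten-point dilution series starting at 100 μM; results given as % activity relative to DMSO at 100%.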
Background: TR-FRET usually uses a lanthanide donor and a delayed reading to cut background.

Test [2] addresses T2, Avi-KRAS G12D (1-169) GppNHp/RAF1 RBD-3×FLAG (52-151) (Homo sapiens, UniProt P01116, G12D).
T2 construct: Avi-KRAS G12D (1-169) GppNHp
Kind of test: HTRF Raf1-KRAS G12D-GppNHp disruption assay. It is filed as biochemical. The note with it: 1 h incubation. In short, it runs like this: as §1

Another test concerns the target GppNHp KRAS G12D (Homo sapiens, UniProt P01116, G12D). The test can be described thus: SPR binding affinity, GppNHp KRAS G12D. The note with it: GppNHp-bound KRAS G12D. Background: Surface plasmon resonance follows binding to a sensor surface in real time, without labels.
The target in the next test is GDP KRAS G12D (Homo sapiens, UniProt P01116, G12D). The test can be described thus: SPR binding affinity, GDP KRAS G12D. The note with it: GDP-bound KRAS G12D.
Chain of GDP KRAS G12D (P01116 1-188 isoform P01116-2 G12D): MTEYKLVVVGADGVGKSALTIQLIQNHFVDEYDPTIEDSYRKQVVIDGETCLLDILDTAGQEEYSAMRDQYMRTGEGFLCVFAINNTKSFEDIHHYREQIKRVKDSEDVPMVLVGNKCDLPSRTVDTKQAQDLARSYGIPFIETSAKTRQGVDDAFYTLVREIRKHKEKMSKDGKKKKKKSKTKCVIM
The subject of test [3] is pERK in GP2d cells (KRAS G12D). The test can be described thus: Cell-based pERK HTRF assay. The note with it: 60 min incubation. In outline: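 GP2d cells (DMEM, 10% FBS) treated 60 min with compounds in a 9-point half-log series from 1 μM top concentration, 0.25% DMSO. Lysates read for pERK by HTRF (d2/Eu cryptate antibodies) after 4–24 h at room temperature; emission at 615 nm.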

Chain of GppNHp KRAS G12D (P01116 1-188 isoform P01116-2 G12D): as above
T2 sequence (P01116 1-169 isoform P01116-2 G12D limits assumed): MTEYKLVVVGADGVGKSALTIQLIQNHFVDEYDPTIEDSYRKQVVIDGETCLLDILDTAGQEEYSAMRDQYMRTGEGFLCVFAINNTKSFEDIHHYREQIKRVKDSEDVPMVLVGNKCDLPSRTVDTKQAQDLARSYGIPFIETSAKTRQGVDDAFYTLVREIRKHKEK
T1 sequence (P01116 1-169 isoform P01116-2 G12D/Q25A limits assumed): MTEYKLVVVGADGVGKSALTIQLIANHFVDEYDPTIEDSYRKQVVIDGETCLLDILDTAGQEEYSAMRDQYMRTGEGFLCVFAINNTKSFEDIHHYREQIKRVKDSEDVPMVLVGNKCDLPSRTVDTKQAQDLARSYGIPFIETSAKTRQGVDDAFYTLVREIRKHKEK

As for `Nc1nc2c(-c3c(C(F)(F)F)cc4c(N[C@@H]5CCNC5)nc(OC[C@@]56CCCN5C[C@H](F)C6)nc4c3F)ccc(F)c2s1` (atropisomer, axis not shown) [Compound 248], the pIC50 in test [1] is 6.00 to 7.00; in test [2], at least 7.00; in test [3] (GP2d, 1 h), under 6.00. Moreover, the negative-log Kd (pKd) on GppNHp KRAS G12D and on GDP KRAS G12D was at least 7.00 each time.
In the case of `Nc1nc2c(-c3c(C(F)(F)F)cc4c(N[C@@H]5CCNC5)nc(OC[C@@]56CCCN5C[C@H](F)C6)nc4c3F)ccc(F)c2s1` (atropisomer, axis not shown) [Compound 249], the values for the pIC50 in test [1] and in test [2] were 4.52 to 5.00 and 5.00 to 6.00, respectively. For the same compound, the pKd on GppNHp KRAS G12D was 5.00 to 6.00; on GDP KRAS G12D it was at least 7.00.
As for `Nc1nc2c(-c3c(C(F)(F)F)cc4c(N5CC6CCC(C5)N6)nc(OC[C@@]56CCCN5C[C@H](F)C6)nc4c3F)ccc(F)c2s1` (single isomer, unassigned) [Compound 245], the pIC50 was at least 7.00 in test [1]; at least 7.00 in test [2]; at least 7.00 in test [3] (GP2d, 1 h). For the same compound, the pKd at GppNHp KRAS G12D and at GDP KRAS G12D was at least 7.00 in each case.
Consider `Nc1nc2c(-c3c(C(F)(F)F)cc4c(N5CC6CCC(C5)N6)nc(OC[C@@]56CCCN5C[C@H](F)C6)nc4c3F)ccc(F)c2s1` (single isomer, unassigned) [Compound 246], for which the pIC50 in test [1] and in test [2] was 5.00 to 6.00 throughout. The figures for the negative logarithm of the Kd (pKd) at GppNHp KRAS G12D and on GDP KRAS G12D were 5.00 to 6.00 and at least 7.00, respectively.
Take `Nc1nc2c(-c3c(Cl)cc4c(N5CCNCC5)ncnc4c3F)ccc(F)c2s1` [Compound 1, 4-(6-chloro-8-fluoro-4-(piperazin-1-yl)quinazolin-7-yl)-7-fluorobenzo[d]thiazol-2-amine]: the pIC50 in test [1] and in test [2] was 4.52 to 5.00 each time. Further, the negative-log Kd (pKd) is 4.52 to 5.00 at GppNHp KRAS G12D and 5.00 to 6.00 at GDP KRAS G12D.
On to `NCCNc1ncnc2c(F)c(-c3ccc(F)c4sc(N)nc34)c(Cl)cc12` [Compound 5, N^1-(7-(2-amino-7-fluorobenzo[d]thiazol-4-yl)-6-chloro-8-fluoroquinazolin-4-yl)ethane-1,2-diamine], for which the pIC50 in test [1] and in test [2] was 4.52 to 5.00 in each case. Besides, the figures for the pKd at GppNHp KRAS G12D and at GDP KRAS G12D were 4.52 to 5.00 and 5.00 to 6.00, respectively.
`N#CC[C@H]1CN(c2ncnc3c(F)c(-c4ccc(F)c5sc(N)nc45)c(Cl)cc23)CCN1C(=O)CN` [Compound 29]: the pIC50 in test [1] and in test [2] was 4.52 to 5.00 each time. Also, the negative-log Kd (pKd) at GppNHp KRAS G12D was 4.52 to 5.00; at GDP KRAS G12D it was 5.00 to 6.00.
Consider `CN(C)C1CN(c2nc(NCCN)c3cc(Cl)c(-c4ccc(F)c5sc(N)nc45)c(F)c3n2)C1` [Compound 46, N^1-(7-(2-amino-7-fluorobenzo[d]thiazol-4-yl)-6-chloro-2-(3-(dimethylamino)azetidin-1-yl)-8-fluoroquinazolin-4-yl)ethane-1,2-diamine], for which the pIC50 in test [1] and in test [2] was 4.52 to 5.00 throughout. Further, the values for the pKd at GppNHp KRAS G12D and on GDP KRAS G12D were 4.52 to 5.00 and 5.00 to 6.00, respectively.
`CN(C)C1CN(c2nc(N3CCNCC3)c3cc(Cl)c(-c4ccc(F)c5sc(N)nc45)c(F)c3n2)C1` [Compound 47]: the pIC50 in test [1] and in test [2] was 4.52 to 5.00 each time. Moreover, the pKd at GppNHp KRAS G12D was 4.52 to 5.00; at GDP KRAS G12D it was 5.00 to 6.00.
`CN1CCC[C@H]1COc1nc(NCCN)c2cc(Cl)c(-c3ccc(F)c4sc(N)nc34)c(F)c2n1` [Compound 49]: the pIC50 in test [1] and in test [2] was 5.00 to 6.00 each time. Further, the negative-log Kd (pKd) at GppNHp KRAS G12D was 5.00 to 6.00; on GDP KRAS G12D, at least 7.00.
Consider `CN1CCC[C@H]1COc1nc(N2CCN(C(=O)CN)[C@@H](CC#N)C2)c2cc(Cl)c(-c3ccc(F)c4sc(N)nc34)c(F)c2n1` [Compound 54], for which the pIC50 in test [1] and in test [2] was 5.00 to 6.00 in each case. Besides, the values for the negative logarithm of the Kd (pKd) on GppNHp KRAS G12D and at GDP KRAS G12D were 5.00 to 6.00 and 6.00 to 7.00, respectively.
In the case of `CN1CCC[C@H]1COc1nc(NC2CNC2)c2cc(Cl)c(-c3ccc(F)c4sc(N)nc34)c(F)c2n1` [Compound 55, 4-(4-(azetidin-3-ylamino)-6-chloro-8-fluoro-2-(((S)-1-methylpyrrolidin-2-yl)methoxy)quinazolin-7-yl)-7-fluorobenzo[d]thiazol-2-amine], the pIC50 in test [1] and in test [2] was 5.00 to 6.00 in each case. In addition, the pKd was 5.00 to 6.00 on GppNHp KRAS G12D and at least 7.00 on GDP KRAS G12D.
Regarding `CN1CCC[C@H]1COc1nc(N2CCN[C@@H](CC#N)C2)c2cc(Cl)c(-c3ccc(F)c4sc(N)nc34)c(F)c2n1` [Compound 56], the pIC50 in test [1] and in test [2] was 4.52 to 5.00 each time. The pKd on GppNHp KRAS G12D was 4.52 to 5.00; on GDP KRAS G12D, 6.00 to 7.00.
Consider `NCCNc1nc(OCC23CCCN2CCC3)nc2c(F)c(-c3ccc(F)c4sc(N)nc34)c(Cl)cc12` [Compound 77], for which the pIC50 in test [1] and in test [2] was 5.00 to 6.00 throughout. Moreover, the negative logarithm of the Kd (pKd) at GppNHp KRAS G12D is 6.00 to 7.00.
`Nc1nc2c(-c3c(Cl)cc4c(NC5CNC5)nc(OCC56CCCN5CCC6)nc4c3F)ccc(F)c2s1` [Compound 89]: the pIC50 in test [1] and in test [2] was 5.00 to 6.00 each time. Further, the pKd at GppNHp KRAS G12D is 6.00 to 7.00.
`Nc1nc2c(-c3c(C(F)(F)F)cc4c(NC5CNC5)nc(OCC56CCCN5CCC6)nc4c3F)ccc(F)c2s1` [Compound 120]: the pIC50 is 6.00 to 7.00 in test [1]; 6.00 to 7.00 in test [2]; under 6.00 in test [3] (GP2d, 1 h). The negative logarithm of the Kd (pKd) at GppNHp KRAS G12D and on GDP KRAS G12D was at least 7.00 throughout.
`Nc1nc2c(-c3c(Cl)cc4c(N5CC6CCC(C5)N6)nc(OCC56CCCN5CCC6)nc4c3F)ccc(F)c2s1` [Compound 157, 4-(4-(3,8-diazabicyclo[3.2.1]octan-3-yl)-6-chloro-8-fluoro-2-((tetrahydro-1H-pyrrolizin-7a(5H)-yl)methoxy)quinazolin-7-yl)-7-fluorobenzo[d]thiazol-2-amine]: the pIC50 in test [1] is 6.00 to 7.00; in test [2], 6.00 to 7.00; in test [3] (GP2d, 1 h), 6.00 to 7.00. Also, the negative logarithm of the Kd (pKd) on GppNHp KRAS G12D and at GDP KRAS G12D was at least 7.00 each time.
On to `Nc1nc2c(-c3c(C(F)(F)F)cc4c(N5CC6CCC(C5)N6)nc(OCC56CCCN5CCC6)nc4c3F)ccc(F)c2s1` [Compound 158, 4-(4-(3,8-diazabicyclo[3.2.1]octan-3-yl)-8-fluoro-2-((tetrahydro-1H-pyrrolizin-7a(5H)-yl)methoxy)-6-(trifluoromethyl)quinazolin-7-yl)-7-fluorobenzo[d]thiazol-2-amine], for which the pIC50 in test [1] is 6.00 to 7.00; in test [2] it was 6.00 to 7.00; in test [3] (GP2d, 1 h) it was at least 7.00. Moreover, the negative-log Kd (pKd) at GppNHp KRAS G12D and at GDP KRAS G12D was at least 7.00 each time.
For `Nc1nc2c(-c3c(C(F)(F)F)cc4c(N5CC6CCC(C5)N6)nc(OC[C@@]56CCCN5C[C@H](F)C6)nc4c3F)ccc(F)c2s1` [Compound 219, 4-(4-(3,8-diazabicyclo[3.2.1]octan-3-yl)-8-fluoro-2-(((2R,7aS)-2-fluorotetrahydro-1H-pyrrolizin-7a(5H)-yl)methoxy)-6-(trifluoromethyl)quinazolin-7-yl)-7-fluorobenzo[d]thiazol-2-amine], the pIC50 was 6.00 to 7.00 in test [1]; at least 7.00 in test [2]; at least 7.00 in test [3] (GP2d, 1 h). Besides, the negative-log Kd (pKd) on GppNHp KRAS G12D and on GDP KRAS G12D was at least 7.00 in each case.
Consider `CN1C2CCC1CN(c1nc(OC[C@@]34CCCN3C[C@H](F)C4)nc3c(F)c(-c4ccc(F)c5sc(N)nc45)c(C(F)(F)F)cc13)C2` [Compound 221], for which the pIC50 is 5.00 to 6.00 in test [1]; 5.00 to 6.00 in test [2]; 6.00 to 7.00 in test [3] (GP2d, 1 h). The negative-log Kd (pKd) on GppNHp KRAS G12D was 5.00 to 6.00; on GDP KRAS G12D, at least 7.00.
In the case of `Nc1nc2c(-c3c(C(F)(F)F)cc4c(N5CC6CC5CN6)nc(OC[C@@]56CCCN5C[C@H](F)C6)nc4c3F)ccc(F)c2s1` (stereo partly drawn) [Compound 241], the pIC50 in test [1] is 6.00 to 7.00; in test [2], 6.00 to 7.00; in test [3] (read-out: pERK-Gp2D-1hr), at least 7.00. Moreover, the negative-log Kd (pKd) at GppNHp KRAS G12D and on GDP KRAS G12D was at least 7.00 in each case.
For the compound `N#Cc1c(N)sc2c(F)ccc(-c3c(C(F)(F)F)cc4c(N5C[C@H]6CC[C@@H](C5)N6)nc(OC[C@@]56CCCN5C[C@H](F)C6)nc4c3F)c12` [Compound 255, 4-(4-((1R,5S)-3,8-diazabicyclo[3.2.1]octan-3-yl)-8-fluoro-2-(((2R,7aS)-2-fluorotetrahydro-1H-pyrrolizin-7a(5H)-yl)methoxy)-6-(trifluoromethyl)quinazolin-7-yl)-2-amino-7-fluorobenzo[b]thiophene-3-carbonitrile], the pIC50 in test [1] is 6.00 to 7.00; in test [2], at least 7.00; in test [3] (GP2d, 1 h) it was at least 7.00. Moreover, the pKd on GppNHp KRAS G12D and at GDP KRAS G12D was at least 7.00 in each case.
Turning to `CN(c1nc(OC[C@@]23CCCN2C[C@H](F)C3)nc2c(F)c(-c3ccc(F)c4sc(N)nc34)c(C(F)(F)F)cc12)C1C2C[C@H]1CN2` (stereo partly drawn) [Compound 289], the pIC50 in test [1] and in test [2] was 6.00 to 7.00 in each case. In addition, the negative logarithm of the Kd (pKd) at GppNHp KRAS G12D was 6.00 to 7.00; at GDP KRAS G12D, at least 7.00.

The pKd is the negative decadic logarithm of the Kd, by convention in mol/L.

The values are drawn from patent US20240246954A1, “COMPOSITIONS AND METHODS FOR INHIBITING KRAS” (TheRas, Inc., priority 2021, published 2024).
